Assay results as given in patent US12139520B2 (priority 2020, dated 2024).
Bridge positions count the residues as written; N and C are the ends. Square brackets hold non-standard residues; d marks the D form. Peptide text beside a SMILES is read from it. Hyp = O=C(O)[C@@H]1C[C@@H](O)CN1; Cit = NC(=O)NCCC[C@H](N)C(=O)O

Key:
hAMY3 receptor = target: T1, hAMY3 receptor (Homo sapiens, UniProt O60896+P30988); assay: cAMP assay for in vitro receptor activation, hAMY3-R; assay type: cell-based; conditions: cAMP assay, hAMY3 receptor; read-out: hAMY3R EC50
T1 sequence (P30988 25-474): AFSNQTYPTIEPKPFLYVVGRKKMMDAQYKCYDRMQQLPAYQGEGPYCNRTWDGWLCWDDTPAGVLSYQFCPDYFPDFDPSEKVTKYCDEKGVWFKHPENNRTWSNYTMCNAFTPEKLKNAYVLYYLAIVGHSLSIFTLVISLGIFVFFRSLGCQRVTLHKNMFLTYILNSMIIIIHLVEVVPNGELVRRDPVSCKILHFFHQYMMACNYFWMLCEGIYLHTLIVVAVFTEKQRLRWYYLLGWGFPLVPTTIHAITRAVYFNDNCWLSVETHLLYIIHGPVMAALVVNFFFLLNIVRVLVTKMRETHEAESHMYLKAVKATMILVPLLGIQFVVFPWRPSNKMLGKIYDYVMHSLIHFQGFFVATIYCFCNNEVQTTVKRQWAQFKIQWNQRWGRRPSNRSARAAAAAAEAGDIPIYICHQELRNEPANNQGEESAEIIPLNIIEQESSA
T1 sequence (O60896 24-148 partner): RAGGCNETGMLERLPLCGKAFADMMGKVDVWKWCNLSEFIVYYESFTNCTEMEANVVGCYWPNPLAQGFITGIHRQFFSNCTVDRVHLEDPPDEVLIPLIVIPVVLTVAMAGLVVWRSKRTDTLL
How it was run: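 Monoclonal cell line stably overexpressing human AMY3 receptor, 2000 cells/well in DPBS with 0.05% casein and 0.5 mM IBMX. Stimulated 30 min at room temperature with graded compound doses, human amylin as positive control. cAMP accumulation read by TR-FRET after one hour.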

hAM1 receptor = hAM1 receptor (Homo sapiens, UniProt O60895+Q16602); assay: cAMP assay for in vitro receptor activation, hAM1-R; assay type: cell-based; conditions: cAMP assay, hAM1 receptor; read-out: hAM1R EC50
How it was run: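 cAMP accumulation was measured in a monoclonal cell line stably overexpressing the hAM1 receptor. Frozen aliquots were thawed and plated at 8000 cells/well in DPBS containing 0.05% casein and 0.5 mM IBMX.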

[1] = Physical stability of peptide analogues (Thioflavin T fibrillation); assay type: physicochemical; conditions: maximum ThT signal normalized between hAMY maximum and buffer background; 40° C., shaking, four days; pH 7 per table title
How it was run: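 Samples are stressed at 40 °C for four days, being shaken at 700 rpm before each 10-min fluorescence reading of 4 μM Thioflavin T. Buffers were pH 4 acetate or pH 7 phosphate. Reported values are smoothed maximum ThT signals as a percentage of the hAMY-to-background range.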

hAM1 receptor, sequence (Q16602 23-461): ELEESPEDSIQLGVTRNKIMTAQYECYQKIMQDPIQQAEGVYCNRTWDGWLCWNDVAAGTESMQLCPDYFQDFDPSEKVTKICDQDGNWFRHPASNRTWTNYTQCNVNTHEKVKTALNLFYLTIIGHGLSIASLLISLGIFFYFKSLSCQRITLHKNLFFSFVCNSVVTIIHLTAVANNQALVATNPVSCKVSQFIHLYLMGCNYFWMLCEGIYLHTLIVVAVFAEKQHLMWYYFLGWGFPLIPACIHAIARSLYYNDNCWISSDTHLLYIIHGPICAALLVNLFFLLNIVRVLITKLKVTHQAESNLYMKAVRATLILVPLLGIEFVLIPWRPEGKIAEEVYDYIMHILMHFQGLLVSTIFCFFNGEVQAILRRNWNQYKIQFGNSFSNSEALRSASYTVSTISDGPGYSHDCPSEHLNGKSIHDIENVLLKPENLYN
hAM1 receptor, sequence (O60895 43-175 partner): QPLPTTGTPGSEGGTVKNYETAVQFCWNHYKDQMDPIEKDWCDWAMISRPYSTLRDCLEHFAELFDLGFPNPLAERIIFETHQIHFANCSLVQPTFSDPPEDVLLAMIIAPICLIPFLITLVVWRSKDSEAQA

| Compound | EC50 (hAMY3 receptor) [nM] | EC50 (hAM1 receptor) [nM] | Max ThT signal (%) [1] [%] |
| --- | --- | --- | --- |
| CC[C@H](C)[C@H](NC(=O)[C@H](CCC(N)=O)NC(=O)[C@H](Cc1c[nH]cn1)NC(=O)[C@H](C)NC(=O)[C@H](CC(C)C)NC(=O)[C@H](CCCNC(=N)N)NC(=O)[C@H](CCC(N)=O)NC(=O)[C@@H](NC(=O)[C@@H](NC(=O)[C@@H]1CSSC[C@H](NC(=O)CN)C(=O)N[C@@H](CCCNC(=N)N)C(=O)N[C@@H]([C@@H](C)O)C(=O)NCC(=O)N[C@@H]([C@@H](C)O)C(=O)N1)[C@@H](C)O)C(C)C)C(=O)N[C@@H](Cc1ccc(O)cc1)C(=O)N[C@@H](CCC(N)=O)C(=O)N[C@@H](Cc1ccccc1)C(=O)N[C@H](C(=O)N[C@@H](CC(=O)O)C(=O)N[C@@H](CCCCN)C(=O)N[C@@H](Cc1ccccc1)C(=O)N[C@@H](CCCCN)C(=O)N[C@@H](CC(=O)O)C(=O)N[C@@H](CC(N)=O)C(=O)N[C@H](C(=O)N[C@@H](C)C(=O)N1CCC[C@H]1C(=O)N[C@@H](CCCNC(=N)N)C(=O)N[C@@H](CO)C(=O)N[C@@H](CCCCN)C(=O)N[C@H](C(=O)N[C@@H](CO)C(=O)N1CCC[C@H]1C(=O)N[C@@H](CCC(N)=O)C(=O)N[C@@H](Cc1c[nH]c2ccccc12)C(=O)N1C[C@H](O)C[C@H]1C(N)=O)[C@@H](C)CC)C(C)C)[C@@H](C)O [compound 185] (H-GCRTGTCTVQRLAHQIYQFTDKFKDNVAPRSKISPQW[Hyp]-NH2; disulfide 2-7; N-terminus assumed) | 0.09 | > 5000 | 2.800 |
| CC[C@H](C)[C@H](NC(=O)[C@H](CCC(N)=O)NC(=O)[C@H](Cc1c[nH]cn1)NC(=O)[C@H](C)NC(=O)[C@H](CC(C)C)NC(=O)[C@H](CCCNC(N)=O)NC(=O)[C@H](CCC(N)=O)NC(=O)[C@@H](NC(=O)[C@@H](NC(=O)[C@@H]1CSSC[C@H](NC(=O)CN)C(=O)N[C@@H](CCCNC(=N)N)C(=O)N[C@@H]([C@@H](C)O)C(=O)NCC(=O)N[C@@H]([C@@H](C)O)C(=O)N1)[C@@H](C)O)C(C)C)C(=O)N[C@@H](Cc1ccc(O)cc1)C(=O)N[C@@H](CCC(N)=O)C(=O)N[C@@H](Cc1ccccc1)C(=O)N[C@H](C(=O)N[C@@H](CC(=O)O)C(=O)N[C@@H](CCCCN)C(=O)N[C@@H](CC(=O)O)C(=O)N[C@@H](CCCCN)C(=O)N[C@@H](CC(=O)O)C(=O)N[C@@H](CC(N)=O)C(=O)N[C@H](C(=O)N[C@@H](C)C(=O)N1CCC[C@H]1C(=O)N[C@@H](CCCNC(=N)N)C(=O)N[C@H](C(=O)N[C@@H](CC(N)=O)C(=O)N[C@H](C(=O)NCC(=O)N1CCC[C@H]1C(=O)N[C@@H](CCC(N)=O)C(=O)NCC(=O)N1C[C@H](O)C[C@H]1C(N)=O)C(C)C)[C@@H](C)O)C(C)C)[C@@H](C)O [compound 261] (H-GCRTGTCTVQ[Cit]LAHQIYQFTDKDKDNVAPRTNVGPQG[Hyp]-NH2; disulfide 2-7; N-terminus assumed) | 0.018 | > 5000 | 22.650 |
| CC[C@H](C)[C@H](NC(=O)[C@H](CCCCN)NC(=O)[C@@H](NC(=O)[C@H](CCCNC(=N)N)NC(=O)[C@@H]1CCCN1C(=O)[C@H](C)NC(=O)[C@@H](NC(=O)[C@H](CC(N)=O)NC(=O)[C@H](CC(=O)O)NC(=O)[C@H](CCCCN)NC(=O)[C@H](CC(=O)O)NC(=O)[C@H](CCCCN)NC(=O)[C@H](CC(=O)O)NC(=O)[C@@H](NC(=O)[C@H](Cc1ccccc1)NC(=O)[C@H](CCC(N)=O)NC(=O)[C@H](Cc1ccc(O)cc1)NC(=O)[C@@H](NC(=O)[C@H](CCC(N)=O)NC(=O)[C@H](Cc1c[nH]cn1)NC(=O)[C@H](C)NC(=O)[C@H](CC(C)C)NC(=O)[C@H](Cc1c[nH]c2ccccc12)NC(=O)[C@H](CCC(N)=O)NC(=O)[C@@H](NC(=O)[C@@H](NC(=O)[C@@H]1CSSC[C@H](NC(=O)CN)C(=O)N[C@@H](CCCNC(=N)N)C(=O)N[C@@H]([C@@H](C)O)C(=O)NCC(=O)N[C@@H]([C@@H](C)O)C(=O)N1)[C@@H](C)O)C(C)C)[C@@H](C)CC)[C@@H](C)O)C(C)C)[C@@H](C)O)C(=O)NCC(=O)N1CCC[C@H]1C(=O)N[C@@H](CC(N)=O)C(=O)NCC(=O)N1C[C@H](O)C[C@H]1C(N)=O [compound 339] (H-GCRTGTCTVQWLAHQIYQFTDKDKDNVAPRTKIGPNG[Hyp]-NH2; disulfide 2-7; N-terminus assumed) | 0.047 | > 5000 | 20.050 |
| CC(C)C[C@H](NC(=O)[C@H](Cc1c[nH]c2ccccc12)NC(=O)[C@H](CCC(N)=O)NC(=O)[C@@H](NC(=O)[C@@H](NC(=O)[C@@H]1CSSC[C@H](NC(=O)CN)C(=O)N[C@@H](CCCNC(=N)N)C(=O)N[C@@H](Cc2ccccc2)C(=O)NCC(=O)N[C@@H]([C@@H](C)O)C(=O)N1)[C@@H](C)O)C(C)C)C(=O)N[C@@H](C)C(=O)N[C@@H](Cc1c[nH]cn1)C(=O)N[C@@H](Cc1ccccc1)C(=O)N[C@@H](CC(C)C)C(=O)N[C@@H](Cc1ccc(O)cc1)C(=O)N[C@@H](CCC(N)=O)C(=O)N[C@@H](Cc1ccccc1)C(=O)N[C@H](C(=O)N[C@@H](CC(=O)O)C(=O)N[C@@H](CCCCN)C(=O)N[C@@H](CC(=O)O)C(=O)N[C@@H](CCCCN)C(=O)N[C@@H](CC(=O)O)C(=O)N[C@@H](CC(N)=O)C(=O)N[C@H](C(=O)N[C@@H](C)C(=O)N1CCC[C@H]1C(=O)N[C@@H](CCCNC(=N)N)C(=O)N[C@H](C(=O)N[C@@H](CC(N)=O)C(=O)N[C@H](C(=O)NCC(=O)N1CCC[C@H]1C(=O)N[C@@H](CCC(N)=O)C(=O)NCC(=O)N[C@@H](Cc1ccc(O)cc1)C(N)=O)C(C)C)[C@@H](C)O)C(C)C)[C@@H](C)O [compound 326] (H-GCRFGTCTVQWLAHFLYQFTDKDKDNVAPRTNVGPQGY-NH2; disulfide 2-7; N-terminus assumed) | 0.053 | > 5000 | 2.350 |
| CC[C@H](C)[C@H](NC(=O)[C@H](CCC(N)=O)NC(=O)[C@H](Cc1c[nH]cn1)NC(=O)[C@H](C)NC(=O)[C@H](CC(C)C)NC(=O)[C@H](CCCNC(=N)N)NC(=O)[C@H](CCC(N)=O)NC(=O)[C@@H](NC(=O)[C@@H](NC(=O)[C@@H]1CSSC[C@H](NC(=O)CN)C(=O)N[C@@H](CCCNC(=N)N)C(=O)N[C@@H](Cc2c[nH]c3ccccc23)C(=O)NCC(=O)N[C@@H]([C@@H](C)O)C(=O)N1)[C@@H](C)O)C(C)C)C(=O)N[C@@H](Cc1ccc(O)cc1)C(=O)N[C@@H](CCC(N)=O)C(=O)N[C@@H](Cc1ccccc1)C(=O)N[C@H](C(=O)N[C@@H](CC(=O)O)C(=O)N[C@@H](CCCCN)C(=O)N[C@@H](CC(=O)O)C(=O)N[C@@H](CCCCN)C(=O)N[C@@H](CC(=O)O)C(=O)N[C@@H](CC(N)=O)C(=O)N[C@H](C(=O)N[C@@H](C)C(=O)N1CCC[C@H]1C(=O)N[C@@H](CO)C(=O)N[C@@H](CO)C(=O)N[C@@H](CCCCN)C(=O)N[C@H](C(=O)N[C@@H](CO)C(=O)N1CCC[C@H]1C(=O)N[C@@H](CCC(N)=O)C(=O)N[C@H](C(=O)N1C[C@H](O)C[C@H]1C(N)=O)[C@@H](C)O)[C@@H](C)CC)C(C)C)[C@@H](C)O [compound 202] (H-GCRWGTCTVQRLAHQIYQFTDKDKDNVAPSSKISPQT[Hyp]-NH2; disulfide 2-7) | 0.126 | > 5000 | 12.600 |
